Measured values taken from patent publication US10266577B2, “GLP-1 derivatives, and uses thereof” (Novo Nordisk A/S, priority 2013, dated 2019).
Square brackets hold non-standard residues; d marks the D form. Side chains are listed from the residue outwards. Peptide text beside a SMILES is read from it. * marks the point of attachment. Hexadecanoyl(16-SO3H) = O=C(CCCCCCCCCCCCCCCS(=O)(=O)O)*; Cya = N[C@@H](CS(=O)(=O)O)C(=O)O; Trx = NC[C@H]1CC[C@H](C(=O)O)CC1; AEEA = NCCOCCOCC(=O)O; Aib = CC(C)(N)C(=O)O

Assay: in vivo
Conditions: male, Göttingen, minipig, iv
Procedure: The purpose of this study is to determine the protraction in vivo of the GLP-1 derivatives after i.v. administration to minipigs, i.e. the prolongation of their time in the body and thereby their time of action. This is done in a pharmacokinetic (PK) study, where the terminal half-life of the derivative in question is determined. By terminal half-life is meant the time it takes to halve a certain plasma concentration in the terminal elimination phase.
Male Göttingen minipigs were obtained from Ellegaard Göttingen Minipigs (Dalmose, Denmark) approximately 7-14 months of age and weighing approximately 16-35 kg were used in the studies. The minipigs were housed either individually (pigs with permanent catheters) or in a group and fed restrictedly once or twice daily with SDS minipig diet (Special Diets Services, Essex, UK).
After at least 2 weeks of acclimatisation two permanent central venous catheters were implanted in vena cava caudalis or cranialis in each animal. The animals were allowed 1 week recovery after the surgery, and were then used for repeated pharmacokinetic studies with a suitable wash-out period between successive GLP-1 derivative dosings.
Blood samples (for example 0.8 ml) were collected in EDTA buffer (8 mM) and then centrifuged at 4° C. and 1942G for 10 minutes.
Plasma was pipetted into Micronic tubes on dry ice, and kept at −20° C. until analysed for plasma concentration of the respective GLP-1 compound using LOCI. Individual plasma concentration-time profiles were analyzed by a non-compartmental pharmacokinetic method in Phoenix v. 6.2 (Pharsight Inc., Mountain View, Calif., USA), or other relevant software for PK analysis, and the resulting terminal half-lives (harmonic mean) determined.

Structure (SMILES) | half-life [h]
CC[C@H](C)[C@H](NC(=O)[C@H](Cc1ccccc1)NC(=O)[C@H](CCC(=O)O)NC(=O)[C@H](CCCNC(=N)N)NC(=O)[C@H](C)NC(=O)[C@H](C)NC(=O)[C@H](CCC(N)=O)NC(=O)[C@H](CCCCNC(=O)COCCOCCNC(=O)COCCOCCNC(=O)[C@H](CS(=O)(=O)O)NC(=O)CCCCCCCCCCCCCCCS(=O)(=O)O)NC(=O)[C@H](CCC(=O)O)NC(=O)[C@H](CC(C)C)NC(=O)[C@H](Cc1ccc(O)cc1)NC(=O)[C@H](CCCCNC(=O)COCCOCCNC(=O)COCCOCCNC(=O)[C@H](CS(=O)(=O)O)NC(=O)CCCCCCCCCCCCCCCS(=O)(=O)O)NC(=O)[C@H](CO)NC(=O)[C@@H](NC(=O)[C@H](CC(=O)O)NC(=O)[C@H](CO)NC(=O)[C@@H](NC(=O)[C@H](Cc1ccccc1)NC(=O)[C@@H](NC(=O)CNC(=O)[C@H](CCC(=O)O)NC(=O)C(C)(C)NC(=O)[C@@H](N)Cc1c[nH]cn1)[C@@H](C)O)[C@@H](C)O)C(C)C)C(=O)N[C@@H](CCCCNC(=O)COCCOCCNC(=O)COCCOCCNC(=O)[C@H](CS(=O)(=O)O)NC(=O)CCCCCCCCCCCCCCCS(=O)(=O)O)C(=O)N[C@@H](Cc1c[nH]c2ccccc12)C(=O)N[C@@H](CC(C)C)C(=O)N[C@H](C(=O)N[C@@H](CCCNC(=N)N)C(=O)NCC(=O)N[C@@H](CCCNC(=N)N)C(=O)NCC(=O)O)C(C)C [Example 2] (H-H[Aib]EGTFTSDVSK([AEEA-AEEA-Cya-Hexadecanoyl(16-SO3H)])YLEK([AEEA-AEEA-Cya-Hexadecanoyl(16-SO3H)])QAAREFIK([AEEA-AEEA-Cya-Hexadecanoyl(16-SO3H)])WLVRGRG-OH; N-terminus and C-terminus assumed) | 140
CC[C@H](C)[C@H](NC(=O)[C@H](Cc1ccccc1)NC(=O)[C@H](CCC(=O)O)NC(=O)[C@H](CCCCNC(=O)[C@@H](N)CCCCNC(=O)[C@H](CO)NC(=O)[C@H](CO)NC(=O)[C@H](CO)NC(=O)[C@H](CO)NC(=O)[C@H](CO)NC(=O)CC[C@H](NC(=O)CCCCCCCCCCCCCCCCC(=O)O)C(=O)O)NC(=O)[C@H](C)NC(=O)[C@H](C)NC(=O)[C@H](CCC(N)=O)NC(=O)CNC(=O)[C@H](CCC(=O)O)NC(=O)[C@H](CC(C)C)NC(=O)[C@H](Cc1ccc(O)cc1)NC(=O)[C@H](CCCCNC(=O)[C@@H](N)CCCCNC(=O)[C@H](CO)NC(=O)[C@H](CO)NC(=O)[C@H](CO)NC(=O)[C@H](CO)NC(=O)[C@H](CO)NC(=O)CC[C@H](NC(=O)CCCCCCCCCCCCCCCCC(=O)O)C(=O)O)NC(=O)[C@H](CO)NC(=O)[C@@H](NC(=O)[C@H](CC(=O)O)NC(=O)[C@H](CO)NC(=O)[C@@H](NC(=O)[C@H](Cc1ccccc1)NC(=O)[C@@H](NC(=O)CNC(=O)[C@H](CCC(=O)O)NC(=O)C(C)(C)NC(=O)[C@@H](N)Cc1c[nH]cn1)[C@@H](C)O)[C@@H](C)O)C(C)C)C(=O)N[C@@H](C)C(=O)N[C@@H](Cc1c[nH]c2ccccc12)C(=O)N[C@@H](CC(C)C)C(=O)N[C@H](C(=O)N[C@@H](CCCNC(=N)N)C(=O)NCC(=O)N[C@@H](CCCNC(=N)N)C(=O)N[C@@H](CCCCNC(=O)[C@@H](N)CCCCNC(=O)[C@H](CO)NC(=O)[C@H](CO)NC(=O)[C@H](CO)NC(=O)[C@H](CO)NC(=O)[C@H](CO)NC(=O)CC[C@H](NC(=O)CCCCCCCCCCCCCCCCC(=O)O)C(=O)O)C(=O)O)C(C)C [Example 3] | 120
CC[C@H](C)[C@H](NC(=O)[C@H](Cc1ccccc1)NC(=O)[C@H](CCC(=O)O)NC(=O)[C@H](CCCNC(=N)N)NC(=O)[C@H](C)NC(=O)[C@H](C)NC(=O)[C@H](CCC(N)=O)NC(=O)[C@H](CCCCNC(=O)COCCOCCNC(=O)COCCOCCNC(=O)[C@H](CS(=O)(=O)O)NC(=O)[C@H]1CC[C@H](CNC(=O)CCCCCCCCCCCCCCCS(=O)(=O)O)CC1)NC(=O)[C@H](CCC(=O)O)NC(=O)[C@H](CC(C)C)NC(=O)[C@H](Cc1ccc(O)cc1)NC(=O)[C@H](CCCCNC(=O)COCCOCCNC(=O)COCCOCCNC(=O)[C@H](CS(=O)(=O)O)NC(=O)[C@H]1CC[C@H](CNC(=O)CCCCCCCCCCCCCCCS(=O)(=O)O)CC1)NC(=O)[C@H](CO)NC(=O)[C@@H](NC(=O)[C@H](CC(=O)O)NC(=O)[C@H](CO)NC(=O)[C@@H](NC(=O)[C@H](Cc1ccccc1)NC(=O)[C@@H](NC(=O)CNC(=O)[C@H](CCC(=O)O)NC(=O)C(C)(C)NC(=O)[C@@H](N)Cc1c[nH]cn1)[C@@H](C)O)[C@@H](C)O)C(C)C)C(=O)N[C@@H](CCCCNC(=O)COCCOCCNC(=O)COCCOCCNC(=O)[C@H](CS(=O)(=O)O)NC(=O)[C@H]1CC[C@H](CNC(=O)CCCCCCCCCCCCCCCS(=O)(=O)O)CC1)C(=O)N[C@@H](Cc1c[nH]c2ccccc12)C(=O)N[C@@H](CC(C)C)C(=O)N[C@H](C(=O)N[C@@H](CCCNC(=N)N)C(=O)NCC(=O)N[C@@H](CCCNC(=N)N)C(=O)NCC(=O)O)C(C)C [Example 4] (H-H[Aib]EGTFTSDVSK([AEEA-AEEA-Cya-Trx-Hexadecanoyl(16-SO3H)])YLEK([AEEA-AEEA-Cya-Trx-Hexadecanoyl(16-SO3H)])QAAREFIK([AEEA-AEEA-Cya-Trx-Hexadecanoyl(16-SO3H)])WLVRGRG-OH; N-terminus and C-terminus assumed) | 120
CC[C@H](C)[C@H](NC(=O)[C@H](Cc1ccccc1)NC(=O)[C@H](CCC(=O)O)NC(=O)[C@H](CCCCNC(=O)[C@H](CO)NC(=O)[C@H](CO)NC(=O)[C@H](CO)NC(=O)[C@H](CO)NC(=O)[C@H](CO)NC(=O)[C@H](CO)NC(=O)CC[C@H](NC(=O)CCCCCCCCCCCCCCCCC(=O)O)C(=O)O)NC(=O)[C@H](C)NC(=O)[C@H](C)NC(=O)[C@H](CCC(N)=O)NC(=O)CNC(=O)[C@H](CCC(=O)O)NC(=O)[C@H](CC(C)C)NC(=O)[C@H](Cc1ccc(O)cc1)NC(=O)[C@H](CCCCNC(=O)[C@H](CO)NC(=O)[C@H](CO)NC(=O)[C@H](CO)NC(=O)[C@H](CO)NC(=O)[C@H](CO)NC(=O)[C@H](CO)NC(=O)CC[C@H](NC(=O)CCCCCCCCCCCCCCCCC(=O)O)C(=O)O)NC(=O)[C@H](CO)NC(=O)[C@@H](NC(=O)[C@H](CC(=O)O)NC(=O)[C@H](CO)NC(=O)[C@@H](NC(=O)[C@H](Cc1ccccc1)NC(=O)[C@@H](NC(=O)CNC(=O)[C@H](CCC(=O)O)NC(=O)C(C)(C)NC(=O)[C@@H](N)Cc1c[nH]cn1)[C@@H](C)O)[C@@H](C)O)C(C)C)C(=O)N[C@@H](C)C(=O)N[C@@H](Cc1c[nH]c2ccccc12)C(=O)N[C@@H](CC(C)C)C(=O)N[C@H](C(=O)N[C@@H](CCCNC(=N)N)C(=O)NCC(=O)N[C@@H](CCCNC(=N)N)C(=O)N[C@@H](CCCCNC(=O)[C@H](CO)NC(=O)[C@H](CO)NC(=O)[C@H](CO)NC(=O)[C@H](CO)NC(=O)[C@H](CO)NC(=O)[C@H](CO)NC(=O)CC[C@H](NC(=O)CCCCCCCCCCCCCCCCC(=O)O)C(=O)O)C(=O)O)C(C)C [Example 8] | 138
